Reference: patent US20170145005A1, “KINASE INHIBITOR” (THE UNIVERSITY OF TOKYO, priority 2014, published 2017)

Key:
PCI66 [1] = assay: Growth inhibitory activity on human pancreatic cancer cell lines (Example 4, WST-8); assay type: cell-based; settings: Example 4: 72 hours, 3000 cells/well
Description: (§1) Three thousand cells of human pancreatic cancer cell lines (L3.6pl, MiaPaca-2, PANC-1, PCI35, and PCI66) were seeded in a medium volume of 90 μL in each well of a 96-well microtiter plate. After 24 hours, 10 μL/well of medium containing the test compound was added. Culture was continued for 72 hours, and 10 μL/well of WST-8 (Dojindo Laboratories Cell Counting kit-8) was added. After culturing for 2 hours, the OD 450 nm absorbance was measured, and the cell growth inhibitory effect was calculated. The cell lines were cultured in a carbon dioxide incubator with a carbon dioxide concentration of 5%.

PANC-1 = assay: as above; assay type: cell-based; settings: Example 4: 72 hours, 3000 cells/well
Description: as §1

PCI35 [2] = assay: as above; assay type: cell-based; settings: Example 4: 72 hours, 3000 cells/well
Description: as §1

MiaPaca-2 [3] = assay: as above; assay type: cell-based; settings: MIA PaCa-2, Example 4: 72 hours, 3000 cells/well
Description: as §1

L3.6pl = assay: as above; assay type: cell-based; settings: Example 4: 72 hours, 3000 cells/well
Description: as §1

PIM-3 kinase = PIM-3 kinase (Homo sapiens, UniProt Q86V86); assay: Measurement of PIM-3 kinase inhibitory activity (fluorescent substrate peptide, capillary electrophoresis); assay type: biochemical; settings: 30 μM ATP, 2 hours at room temperature
Description: 1.5 μM of fluorescent substrate peptide (FAM-AKRRRLSSLRA-COOH), 30 μM of ATP, and 0.0833 ng/μL of PIM-3 kinase were incubated with a compound for 2 hours at room temperature, and the Pim-3 kinase activity was measured. The reaction was quantified by separating the substrate and phosphorylation reaction product by capillary electrophoresis (using a Perkin-Elmer EZ reader II) based on the difference in their charges. The results are shown below in Tables 1 and 2.

PCI66 [4] = assay: Growth inhibitory activity on human pancreatic cancer cell lines (Example 2, WST-8); assay type: cell-based; settings: cultured for 96 hours, 2000 cells/well
Description: (§2) Two thousand cells of human pancreatic cancer cells lines (L3.6pl, MiaPaca-2, PANC-1, PCI35, PCI66) were seeded in a medium volume of 100 μL in each well of a 96-well microtiter plate. The medium was removed after 18 hours, and 100 μL/well of medium containing the test compound was added. Culture was continued for 72 or 96 hours. The medium containing the test compound was removed, and 100 μL/well of medium containing 10% WST-8 (Dojindo Laboratories Cell Counting kit-8) was added. After culturing for one hour, the OD 450 nm absorbance was measured, and the cell growth inhibitory activity was calculated. Furthermore, RPMI-1640 medium (Sigma) was used as the medium with 10% fetal calf serum (Invitrogen), 50 U/mL penicillin G (Sigma), and 50 μg/mL streptomycin (Sigma) added. The cell lines were cultured at 37° C. in a carbon dioxide incubator with a carbon dioxide concentration of 5%.
(§3) Tables 3 and 4 show the results of compound evaluation when cultured for 96 hours.

PCI35 [5] = assay: as above; assay type: cell-based; settings: cultured for 96 hours, 2000 cells/well
Description: as §2, §3

MiaPaca-2 [6] = assay: as above; assay type: cell-based; settings: Homo sapiens, MIA PaCa-2; cultured for 96 hours, 2000 cells/well
Description: as §2, §3

PCI66 cells = assay: Animal study: subcutaneous PCI66 tumor in nude mice; assay type: in vivo, BALB/c nu/nu mice; settings: 30 mg/kg intraperitoneal, once a day for five days then two days off, three cycles, from day 14 after tumor injection
Description: PCI66 cells, which are human pancreatic cancer cells, were suspended in Hanks balanced salt solution in a concentration of 2×10^7 cells/mL, and 100 μL of the cell suspension was injected subcutaneously to the backs of BALB/c nu/nu mice (SLC, Shizuoka, Japan). Drug administration was begun 14 days after tumor injection. The drug was administered once a day for five days intraperitoneally, then withheld for two days. This cycle was repeated three times. The tumor volume was calculated by the following formula.
Tumor volume(cm^3)=[maximum diameter](cm)×[minimum diameter]^2(cm)/2

CCOc1ccc2c(c1C(C)N1CCNCC1)O/C(=C\c1n[nH]c3ncccc13)C2=O (centres unmarked) [Compound 22, (Z)-2-[(1H-pyrazolo[3,4-b]pyridin-3-yl)methylene]-6-ethoxy-7-[1-(piperazin-1-yl)ethyl]benzofuran-3(2H)-one]
IC50 (PCI66 [1]): 2.5 µM | IC50 (PANC-1): 2.7 µM | IC50 (PCI35 [2]): 1.8 µM | IC50 (MiaPaca-2 [3]): 1.3 µM | IC50 (L3.6pl): 2.8 µM | IC50 (PIM-3 kinase): 0.0013 µM

O=C1/C(=C/c2n[nH]c3ncccc23)Oc2c1ccc(F)c2CC1CCNCC1 [Compound 29, (Z)-2-[(1H-pyrazolo[3,4-b]pyridin-3-yl)methylene]-6-fluoro-7-(piperidin-4-ylmethyl)benzofuran-3(2H)-one]
IC50 (PCI66 [1]): 3.9 µM | IC50 (PANC-1): 3.3 µM | IC50 (PCI35 [2]): 6.8 µM | IC50 (MiaPaca-2 [3]): 3.5 µM | IC50 (L3.6pl): 3.8 µM | IC50 (PIM-3 kinase): 0.0045 µM

COc1ccc2c(c1CN1CC3CCC(C1)N3)O/C(=C\c1n[nH]c3ncccc13)C2=O [Compound 25, (Z)-2-[(1H-pyrazolo[3,4-b]pyridin-3-yl)methylene]-7-[(3,8-diazabicyclo[3.2.1]octan-3-yl)methyl]-6-methoxybenzofuran-3(2H)-one]
IC50 (PCI66 [1]): 3.6 µM | IC50 (PANC-1): 9.7 µM | IC50 (PCI35 [2]): 2.8 µM | IC50 (MiaPaca-2 [3]): 1.8 µM | IC50 (L3.6pl): 2.9 µM | IC50 (PIM-3 kinase): 0.00029 µM

COc1ccc2c(c1C(C)N1CCNCC1)O/C(=C\c1n[nH]c3ncccc13)C2=O (centres unmarked) [Compound 6, (Z)-2-[(1H-pyrazolo[3,4-b]pyridin-3-yl)methylene]-6-methoxy-7-[1-(piperazin-1-yl)ethyl]benzofuran-3(2H)-one]
IC50 (PCI66 [4]): 1.8 µM | IC50 (PCI35 [5]): 1.8 µM | IC50 (MiaPaca-2 [6]): 1.6 µM | tumor volume (PCI66 cells): suppress an increase in tumor volume | IC50 (PIM-3 kinase): 0.0076 µM
